The results in this text go back to patent US8541343B2, “Chemical compounds and their use as pesticides” (Syngenta Crop Protection, Inc., priority 2009, dated 2013).

One may read the melting point as the temperature, or range, at which the solid turns liquid. Take `Cc1cc(C)c(C2C(=O)N(N(C)C)C3(CCN(N(C)C)CC3)C2=O)c(C)c1` (centres unmarked) [Compound A1, 1,8-Bis-dimethylamino-3-(2,4,6-trimethyl-phenyl)-1,8-diaza-spiro[4.5]decane-2,4-dione]: the melting point lay in the range of 80 to 85 °C.
The result for `CCOC(=O)OC1=C(c2c(C)cc(C)cc2C)C(=O)N(N(C)C)C12CCN(N(C)C)CC2` [Compound A2, Carbonic acid 1,8-bis-dimethylamino-2-oxo-3-(2,4,6-trimethyl-phenyl)-1,8-diaza-spiro[4.5]dec-3-en-4-yl ester ethyl ester] reads 105 °C.
